According to US6395745B1, “Alkaloid halide salts of swainsonine and methods of use” (priority 1997, dated 2002):

Experiments:
[1] = Accelerated stability of stressed solid samples, percentage remaining by HPLC; type: physicochemical
Source text: Samples of swainsonine free base synthesized using synthetic routes developed by Dr. David Dime (Toronto Research Chemicals, Toronto, Ontario) and Dr. William Pearson (University of Michigan, Ann Arbor, Mich.), were recrystallized to obtain either the hydrochloride salt, the hydrobromide salt or the free base of swainsonine. Samples were weighed and exposed to the conditions described below.
To model long-term stability or shelf life, various conditions were used to accelerate the decomposition process. Samples of crystalline prism swainsonine hydrochloride salt and swainsonine free base (a white, fluffy powder obtained from swainsonine hydrochloride were recrystallized from chloroform-methanol-diethyl ether) were weighed and exposed to conditions described below (stressed samples). Unstressed samples were prepared at 1 mg/ml concentration and chromatographed in sextuplicate on each run. After the indicated time interval each stressed sample was diluted with mobile phase at the same concentration as the unstressed sample. The percentage remaining swainsonine hydrochloride or swainsonine free base was calculated based on the percentage of either the hydrochloride or the free base in the unstressed sample.
The conditions included (a) UV light for 7 days; (b) 105° C. with atmospheric oxygen for seven days (*=average of two samples); (c) 105° C. under nitrogen for seven days (*=average of two samples); (d) 70° C. with low humidity for seven days; and (e) 40° C. with 75% relative humidity for seven days. Other tests include (f) UV for 24 hours; (g) 100° C. aqueous solution for two hours; (h) aqueous acidic treatment for 24 hours; (i) aqueous alkali treatment for 4 hours; and (j) (aqueous) 3% hydrogen peroxide for 4 hours. […] The physical properties of swainsonine hydrochloride compared to the free base and swainsonine hydrobromide, and swainsonine hydrofluoride are shown in Table 5.

STAT3 = STAT3 level in mice (Western blot); type: in vivo, DBA/2 mice; settings: 20 μg/day ip, spleen
Protocol: To measure the level and activation of STATs, DBA/2 mice are treated for 6-9 days with 20 μg/mouse/day of swainsonine hydrochloride followed by a single intraperitoneal (i.p) injection of either sterile saline or 100 μg of poly IC (i.e., dsRNA, a surrogate for virus) in sterile saline. Two hours later an optimal time for STAT activation, spleens of the mice are homogenized and cytosolic and nuclear cell extracts are prepared. STAT protein levels are measured in the cytosolic and nuclear fractions by Western blot analysis. STAT phosphorylation (i.e. activation) is measured following immunoprecipitation using anti-phosphotyrosine antibodies.

[2] = test system: early erythroid progenitor cells (CFU-E); assay: Murine bone marrow progenitor cell assay in methylcellulose, CFU-E; type: cell-based, C57BL/6 mice
Protocol: Pathogen-free C57BL/6 female mice, 8-9 weeks old, obtained from Jackson Laboratories were used. The room environment and photoperiod were controlled: 24° C.; humidity, 50±20%; 12 hr light and 12 hr dark. Mice were housed one per cage with ad libitum accesses to standard pelleted commercial laboratory diet and to sterile (autoclaved) tap water.
Swainsonine hydrochloride was manufactured by Seres Laboratories, Calif. FBS and methylcellulose (MethoCult M3330) were purchased from Stem Cell Technologies, Inc. (Vancouver. BC). Iscove's modified Dulbecco's medium was prepared using powdered media from Gibco BRL, deionized water and filter sterilization. For the handling of cells, the media was supplemented with 2% FBS and 50 μM β-mercaptoethanol (referred to as IMDM/FBS).
The healthy and GD0039 treated mice were euthanized by CO2 asphyxiation. Bone marrow (BM) cell suspensions were prepared under sterile conditions by flushing both femurs and tibiae with IMDM/FBS using a 26 gauge needle. Single cell suspensions were made up to 10.0 ml IMDM/FBS. The concentration of nucleated cells in each suspension was determined by triplicate counts on a hemocytometer. A portion of the cells was further diluted in media to the appropriate concentration before plating for the progenitor assay.
Colony-forming units (CFUs) were estimated by the methylcellulose method. One milliliter suspensions, containing 2×10^5 nucleated BM cells, in 0.1 ml of IMDM and 0.9 ml MethoCult (M3330), were plated in triplicate in 35 mm tissue culture dishes. […] The MethoCult M3330 contains 30% FBS and 10 μg/ml erythropoietin and is designed for the growth of early erythroid progenitor cells (CFU-E), which were scored after 3 days of incubation at 37° C. in a humidified atmosphere containing 5% CO2. […] Colonies containing more than 20 cells were scored using an inverted microscope with brightfield optics and 40× or 100× magnification.

[3] = Solubility in distilled water at room temperature; type: physicochemical
Protocol: The melting point of the clear swainsonine hydrochloride crystal (prism) was 190-191° C. The solubility of swainsonine hydrochloride in distilled water at room temperature was about 3 g/ml, in contrast to the solubility of swainsonine free base, which is about 0.8 g/ml (see Table 5).

Cl.O[C@H]1[C@H]2[C@H](O)CCCN2C[C@@H]1O [swainsonine hydrochloride, (−)-(1S,2S,8R,8aR)-1,2,8-trihydroxyoctahydro-indolizidine hydrochloride salt]
percentage remaining, condition (e) ([1]; 40° C. with 75% relative humidity for seven days): 101.9% | percentage remaining, condition (d) ([1]; 70° C. with low humidity for seven days): 103.2% | percentage remaining, condition (c) ([1]; 105° C. under nitrogen for seven days (*=average of two samples)): 101.2% | percentage remaining, condition (b) ([1]; 105° C. with atmospheric oxygen for seven days (*=average of two samples)): 100.9% | percentage remaining, condition (a) ([1]; UV light for 7 days): 99.4% | STAT3 cytosolic protein levels (STAT3): remained unchanged | increase in the number of early CFU-E ([2]; 0.03 μg/ml to 10 μg/ml in vitro): ~3 fold | number of early CFU-E, counted on day 3 ([2]; added to methylcellulose in vitro): significantly increased | mean CFU-E of triplicate counts ± SD from 2 × 10^5 nucleated BM cells ([2]; mouse 1 (control), 0.3 μg/ml in vitro, in vitro control 54 ± 12): 75 ± 16 | mean CFU-E of triplicate counts ± SD from 2 × 10^5 nucleated BM cells ([2]; mouse 1 (control), 3 μg/ml in vitro, in vitro control 54 ± 12): 87 ± 16 | mean CFU-E of triplicate counts ± SD from 2 × 10^5 nucleated BM cells ([2]; mouse 2 (GD0039 treated in vivo, 20 μg/day for four days), 0.3 μg/ml in vitro): 97 ± 4 | mean CFU-E of triplicate counts ± SD from 2 × 10^5 nucleated BM cells ([2]; mouse 2 (GD0039 treated in vivo, 20 μg/day for four days), 3 μg/ml in vitro): 127 ± 18 | mean CFU-E of triplicate counts ± SD from 2 × 10^5 nucleated BM cells ([2]; mouse 2 (GD0039 treated in vivo, 20 μg/day for four days), no treatment in vitro): 22 ± 5 | solubility in distilled water at room temperature ([3]; Table 5): 3000 mg/mL | solubility in distilled water at room temperature ([3]; distilled water, room temperature): about 3 g/ml
